What was measured:
[1] = Measurement of active ingredient support ratio (solvent extraction / gas chromatography); assay type: physicochemical
Procedure: First, 5 g of a mixed solvent of chloroform:methanol=9:1 (volume ratio) was added to the vial containing the sample, and the mixture was stirred for one minute to extract the supported 2-hexenal. Hexadecane was then added as an internal standard, and the resulting mixture was filtered. The thus obtained filtrate (the extract solution containing the internal standard) was analyzed by gas chromatography, and the amount (mg) of supported 2-hexenal was calculated using a calibration curve prepared in advance using hexadecane as an internal standard. The support ratio (%) of 2-hexenal within 100% of the sample was determined from the calculated supported amount (mg) and the mass of the sample inside the vial.
With the exception that chloroform was added to the vial containing the sample to dissolve the sample, hexadecane was added to the resulting solution as an internal standard, and analysis was then conducted by gas chromatography (7890A apparatus manufactured by Agilent Technologies, Inc.), the support ratio (%) of 2-hexenal within 100% of the sample was determined in the same manner as that described above in [Evaluation 1a].
In Example 12, because 2-hexenal was used alone, the initial 2-hexenal support ratio was deemed to be 100%.
With the exception of using 3-hepten-2-one instead of 2-hexenal as the active ingredient, evaluations were conducted in the same manner as Example 1. […]

[2] = Measurement of active ingredient retention rate after 7 days open storage at 23° C. or 50° C.; assay type: physicochemical; settings: for residual active ingredient after storage (in words): after 7 days storage at either 23° C. or 50° C.
Procedure: The vial containing the sample was stored, without a lid attached, in an environment at either 23° C. or 50° C. for a period of 7 days. Following this storage period, the support ratio (%) of 2-hexenal was determined in the same manner as that described above in [Evaluation 1a].
Based on the measurement results, the 2-hexenal retention rates following storage at 23° C. and at 50° C. were each calculated using the formula below. In the formula, the [initial 2-hexenal content] represents the value determined in the above “Measurement of 2-Hexenal Support Ratio”.
2-Hexenal retention rate (%)=2-hexenal support ratio (%) after storage/initial 2-hexenal support ratio (%)×100
The vial containing the sample was stored in an environment at either 23° C. or 50° C. for a period of 7 days. Following this storage period, the support ratio (%) of 2-hexenal was determined in the same manner as that described above in [Evaluation 2a].
Based on the measurement result, the 2-hexenal retention rate (%) was determined in the same manner as that described above in [Evaluation 1b].
The vial containing the sample was stored in an environment at either 23° C. or 50° C. for a period of 7 days. Following this storage period, the sample mass (g) remaining in the vial was measured, and this value was deemed the 2-hexenal support ratio (%) after storage.
With the exception of using 3-hepten-2-one instead of 2-hexenal as the active ingredient, evaluations were conducted in the same manner as Example 1.
An agent prepared by mixing trioxane and 3-hepten-2-one (in a mass ratio of 100:0.35) and then freeze drying the mixture was used as a heat tolerance-inducing agent, and evaluations were conducted in the same manner as Example 11.
Example 15 used 3-hepten-2-one alone as a heat tolerance-inducing agent. Evaluations were conducted in the same manner as Example 12.

[3] = sample for 23° C. storage, before storage
[4] = sample for 50° C. storage, before storage

Row | 2-hexenal support ratio ([1]; 2-hexenal used alone, initial support ratio deemed to be 100%) [%] | 2-hexenal support amount, Storage at 23° C., After 7 days ([2]; 23° C., 7 days, vial without lid) [mg] | 2-hexenal support amount, Storage at 50° C., After 7 days ([2]; 50° C., 7 days, vial without lid) [mg] | 2-hexenal retention rate 23° C. ([2]; after 7 days storage at 23° C.) [%] | 2-hexenal retention rate 50° C. ([2]; after 7 days storage at 50° C.) [%] | 2-hexenal support amount, Storage at 23° C., Initial [2, 3] [mg] | 2-hexenal support amount, Storage at 50° C., Initial [2, 4] [mg] | 3-hepten-2-one support ratio ([1]; 3-hepten-2-one used alone, evaluated as Example 12 (deemed 100%)) [%] | 3-hepten-2-one support amount, Storage at 23° C., After 7 days ([2]; 23° C., 7 days) [mg] | 3-hepten-2-one support amount, Storage at 50° C., After 7 days ([2]; 50° C., 7 days) [mg] | 3-hepten-2-one retention rate 23° C. ([2]; after 7 days storage at 23° C.) [%] | 3-hepten-2-one retention rate 50° C. ([2]; after 7 days storage at 50° C.) [%] | 3-hepten-2-one support amount, Storage at 23° C., Initial [2, 3] [mg] | 3-hepten-2-one support amount, Storage at 50° C., Initial [2, 4] [mg] | Compound | residual active ingredient after storage (in words) [2]
1 | 100 | 0 | 0 | 0 | 0 | 13 | 12.5 | – | – | – | – | – | – | – | CCCC=CC=O [Example 12, 2-hexenal] | no residual active ingredient was retained
2 | – | – | – | – | – | – | – | 100 | 0 | 0 | 0 | 0 | 11.5 | 10.7 | CCCC=CC(C)=O [Example 15, 3-hepten-2-one] | no residual active ingredient was retained

— patent US20240260573A1, “HEAT TOLERANCE-INDUCING AGENT FOR PLANTS AND METHOD FOR INDUCING HEAT TOLERANCE OF PLANTS” (AGC Inc., priority 2021, published 2024)
